Source: US5994387A, “Pyrrolidinyl methyl indole salt” (Pfizer Inc., priority 1995, dated 1999)
Where two headings read alike, the source gives them in different places.

What was measured:
Format in all cases: physicochemical
[1] = Saturated solubility of free base and fumarate salt in water (HPLC); details: for solubility at 16 h: saturated solubility in water (MilliQ), 16 hours at room temperature; for Solubility in words: water, qualitative statement, fumarate
Description: For both the free base and fumarate salt, approximately 50 mg of solid bulk material was accurately weighed into a 1.5 mL plastic "Eppendorf" tube (Sigma). 0.3 mL of water (MilliQ) was then added to the tubes. The tubes were then vortex mixed at 1,300 rpm ("LKB") for 16 hours at room temperature. The supematant was separated from undissolved material by centrifugation at 13,000 rpm for 20 minutes ("Heraeus Biofuge 13"), then diluted and assayed for Compound (I) by HPLC. This assay used a mobile phase of acetonitrile (20%), water (80%) and trifluoroacetic acid (0.1%) and a 150×4.2 mm "Zorbax SB CN" column at 40° C. with U.V. detection at 220 nm.

[2] = Hygroscopicity: moisture uptake in moisture microbalance; details: for Hygroscopicity at 30° C. and 90% RH: moisture uptake; for Hygroscopicity in words: qualitative statement, fumarate
Description: Approximately 10 mg of each of the free base and fumarate salts of Compound (I) were exposed to 8 different relative humidities (RHs) between 0 and 94% at 30° C. in the Surface Measurement Systems Ltd moisture microbalance. The samples were allowed to reach equilibrium at each of these RHs and the change in weight from the initial value when the sample was first placed in the balance was calculated. The data was used to construct the moisture sorption isotherms for the materials. The hygroscopicity of the materials was compared by calculating the moisture uptake at 90%RH, which was as follows: […]

[3] = Solid-state (bulk) stability after 9 weeks storage, HPLC; design: key to % Degradation (% peak area @ 50° C.-% peak area @ 4° C.): --: No peaks present at this relative retention time; details: for degraded at 1512 h: solid state, read-out: % Degradation (% peak area @ 50° C.-% peak area @ 4° C.); for Solid state stability in words: qualitative statement, fumarate
Description: Approximately 1 mg of each of the free base, hydrochloride, hydrobromide and fumarate salts of Compound (I) were accurately weighed into small glass vials. These were stored for 9 weeks at each of 4° C./ambient humidity, 40° C./ambient humidity, 40° C./75% RH and 50° C./ambient humidity. The samples were then assayed using the following stability indicating HPLC method. A mobile phase consisting of 0.05 M potassium dihydrogen orthophosphate adjusted to pH2 with phosphoric acid (90%) and acetonitrile (far UV) (10%), was pumped through a "Zorbax SB-CN" 150×4.6 mm column (40° C.) at a flow rate of 1 ml/min with UV detection at 225 nm.
The samples with the exception of the free base were prepared by dissolving them in the mobile phase in a 25 ml volumetric flask. The free base was dissolved in a few drops of methanol before diluting with the mobile phase.
The stability of the samples was quantified by investigating the appearance of new peaks in the chromatograms of stored samples and the increase in peaks present compared to control samples stored at 4° C.

[4] = Solubility in the 90% PEG 400 / 10% water formulation (observation); details: 1 mg/mL in 90% PEG 400 and 10% water
Text: (§1) Soft gelatin capsule formulations are an attractive delivery system for Compound (I) as they improve in vivo dissolution and content uniformity on manufacture. The compound (I) can be formulated as a liquid fill soft gelatin capsule. However, oxidative degradation often limits the shelf life of such formulations. PEG 400 is representative of a typical liquid fill diluent used for such a purpose. The following study was designed to determine whether oxidative degradation occurs with Compound (I) in such a formulation, and whether the fumarate salt provides protection against oxidative degradation. 1 mg/mL solutions of Compound (I) as the free base, Compound (I) as the hydrochloride salt and Compound (I) as the fumarate salt were prepared in 90% PEG 400 (BDH) and 10% water (Milli-Q). 10% water was added to the formulations to mimic the ingress of water from the soft gelatin capsule shell. […] However, for ease of solution preparation, the hydrochloride salt was used instead.

[5] = Oxidative stability in 90% PEG 400 with and without hydrogen peroxide; details: for Stability to oxidative degradation, in words: qualitative statement, fumarate
Text: as §1
Hydrogen peroxide (BDH) to a final concentration of 0.3% w/w was added to the formulations to provide an oxidative stress. A control formulation without hydrogen peroxide was also used in the study. 1 mL of each formulation was sealed into 2 mL HPLC vials ("Cromacol") and placed in a thermostated oven at 40° C. Samples were taken at 1.5 and 3 days and stored frozen (-20° C.) prior to assay. The samples were diluted and analysed using the stability indicating HPLC assay as described above. Degradation was expressed as % Compound (I) remaining.

[6] = relative retention time 0.59, 9 weeks at 50° C.
[7] = relative retention time 0.77, 9 weeks at 50° C.
[8] = relative retention time 0.85, 9 weeks at 50° C.
[9] = relative retention time 0.40, 9 weeks at 50° C.
[10] = relative retention time 0.60, 9 weeks at 50° C.
[11] = relative retention time 0.91, 9 weeks at 50° C.
[12] = relative retention time 1.66, 9 weeks at 50° C.
[13] = relative retention time 1.93, 9 weeks at 50° C.

CNS(=O)(=O)Cc1ccc2[nH]cc(C[C@H]3CCCN3C)c2c1 [Free base, (R)-5-(methylaminosulphonylmethyl)-3-(N-methylpyrrolidin-2-ylmethyl)-1H-indole]
solubility at 16 h [1]: 0.12 mg/mL | Hygroscopicity at 30° C. and 90% RH [2]: 0.2 % w/w | New drug related peaks ([3]; 9 weeks at 50° C.): 4 new drug related peaks | Solid-state degradation in words ([3]; 9 weeks at 50° C.): measurable degradation | total increase in % peak area ([3]; all peaks, 9 weeks at 50° C. vs 4° C., 90720 min): 0.32% | % Degradation (% peak area @ 50° C.-% peak area @ 4° C.) [3, 6]: -- | % Degradation (% peak area @ 50° C.-% peak area @ 4° C.) [3, 7]: -- | % Degradation (% peak area @ 50° C.-% peak area @ 4° C.) [3, 8]: -- | degraded at 1512 h [3, 9]: 0.05% | degraded at 1512 h [3, 10]: 0.01% | degraded at 1512 h [3, 11]: 0.02% | degraded at 1512 h [3, 12]: 0.17% | degraded at 1512 h [3, 13]: 0.03% | Solubility in the PEG 400 formulation [4]: not very soluble

CNS(=O)(=O)Cc1ccc2[nH]cc(C[C@H]3CCCN3C)c2c1.O=C(O)/C=C/C(=O)O [Fumarate salt, (R)-5-(methylaminosulphonylmethyl)-3-(N-methylpyrrolidin-2-ylmethyl)-1H-indole fumarate]
solubility at 16 h [1]: 67.5 mg/mL | Solubility in words [1]: Increased solubility | Solubility in words ([1]; listed as fumarate salt of (I)): excellent solubility | Hygroscopicity at 30° C. and 90% RH [2]: 0.2 % w/w | Hygroscopicity in words [2]: not accompanied by increased hygroscopicity | Hygroscopicity in words ([2]; listed as fumarate salt of (I)): non-hygroscopic | Degradation rate compared with the hydrochloride ([5]; 90% PEG 400, 40° C., both time points (1.5 and 3 days)): significantly lower (analysis of variance p<0.001) than the hydrochloride at both time points | Stability to oxidative degradation, in words [5]: significant protection against degradation in the formulation | Stability to oxidative degradation, in words ([5]; listed as fumarate salt of (I)): unexpectedly improved stability to oxidative degradation | Solid-state degradation in words ([3]; 9 weeks at 50° C.): had not degraded at all after 9 weeks 50 °C | Solid state stability in words [3]: most stable in the solid state | Solid state stability in words ([3]; listed as fumarate salt of (I)): excellent solubility and solid state stability | % Degradation (% peak area @ 50° C.-% peak area @ 4° C.) [3, 9]: -- | % Degradation (% peak area @ 50° C.-% peak area @ 4° C.) [3, 10]: -- | % Degradation (% peak area @ 50° C.-% peak area @ 4° C.) [3, 7]: -- | % Degradation (% peak area @ 50° C.-% peak area @ 4° C.) [3, 8]: -- | % Degradation (% peak area @ 50° C.-% peak area @ 4° C.) [3, 11]: -- | % Degradation (% peak area @ 50° C.-% peak area @ 4° C.) [3, 12]: -- | % Degradation (% peak area @ 50° C.-% peak area @ 4° C.) [3, 13]: -- | degraded at 1512 h [3, 6]: 0%
